Like-named read-outs stand apart in the source and are kept apart here.
Key:
Assay type in all cases: in vivo
[1] = tested on: pigweed (Amaranthus retroflexus); test: Test A preemergence; details: Amaranthus retroflexus, pre-emergence, 240 h; for pest or weed control at 125 g/ha: 125 g ai/ha; for pest or weed control at 500 g/ha: 500 g ai/ha
[2] = tested on: barnyardgrass (Echinochloa crus-galli); test: Test B flooded paddy test; details: Echinochloa crus-galli, 250 g ai/ha, Flood
Method in brief: (§1)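 Flooding to 3 cm over soil accompanied treatment, which consisted of adding compound to the standing water around 2-leaf plants; depth was then maintained. Visual assessment versus controls followed at 13 to 15 d (scale 0–100, 0 meaning no effect).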

[3] = tested on: sedge, umbrella (small-flower umbrella sedge, Cyperus difformis); test: Test B flooded paddy test; details: Cyperus difformis, 250 g ai/ha, Flood
Method in brief: as §1

[4] = tested on: ducksalad (Heteranthera limosa); test: Test B flooded paddy test; details: Heteranthera limosa, 250 g ai/ha, Flood
Method in brief: as §1

rice (Oryra sativa) = test: Test B flooded paddy test; details: Oryza sativa, 250 g ai/ha, Flood
Method in brief: as §1

[5] = preemergence, visual injury rating, 0 to 100 scale where 0 is no effect and 100 is complete control, approximately 10 d, read-out: Pigweed plant response rating
[6] = preemergence, 0 to 100 scale where 0 is no effect and 100 is complete control, read-out: Pigweed plant response rating
[7] = 0 to 100 scale where 0 is no effect and 100 is complete control, read-out: Barnyardgrass plant response rating
[8] = 0 to 100 scale where 0 is no effect and 100 is complete control, read-out: Sedge, Umbrella plant response rating
[9] = 0 to 100 scale where 0 is no effect and 100 is complete control, read-out: Ducksalad plant response rating
[10] = 0 to 100 scale where 0 is no effect and 100 is complete control, read-out: Rice plant response rating
[11] = Preemergence, 0 to 100 scale (0 no effect, 100 complete control), read-out: Plant response rating, Pigweed
[12] = 360 h, visually evaluated after 13 to 15 d, read-out: Plant response rating, Sedge, Umbrella (0 to 100 scale where 0 is no effect and 100 is complete control)
[13] = preemergence, 0 to 100 scale (0 no effect, 100 complete control), read-out: Plant response rating, Pigweed
[14] = 360 h, visually evaluated after 13 to 15 d, read-out: Plant response rating, Barnyardgrass (0 to 100 scale where 0 is no effect and 100 is complete control)
[15] = 360 h, visually evaluated after 13 to 15 d, read-out: Plant response rating, Ducksalad (0 to 100 scale where 0 is no effect and 100 is complete control)
[16] = 360 h, visually evaluated after 13 to 15 d, read-out: Plant response rating, Rice (0 to 100 scale where 0 is no effect and 100 is complete control)

SMILES	pest or weed control at 125 g/ha [1, 5]	pest or weed control at 500 g/ha [1, 6]	pest or weed control at 250 g/ha [2, 7]	pest or weed control at 250 g/ha [3, 8]	pest or weed control at 250 g/ha [4, 9]	pest or weed control at 250 g/ha (rice (Oryra sativa); [10])	pest or weed control at 125 g/ha [1, 11]	pest or weed control at 250 g/ha [3, 12]	pest or weed control at 500 g/ha [1, 13]	pest or weed control at 250 g/ha [2, 14]	pest or weed control at 250 g/ha [4, 15]	pest or weed control at 250 g/ha (rice (Oryra sativa); [16])
Cc1cc([C@H]2CNC(=O)[C@@H]2C(=O)Nc2ccccc2C(F)(F)F)ccc1Cl [Compound 1245]	0%	0%	0%	0%	90%	0%						
Cc1ccc([C@H]2CNC(=O)[C@@H]2C(=O)Nc2c(F)cccc2F)cc1C [Compound 1247]	0%	0%	20%	0%	55%	0%						
CSc1ccccc1NC(=O)[C@H]1C(=O)N(C)C[C@@H]1c1cccc(C(F)(F)F)c1 [Compound 1249]	80%	90%	60%	0%	100%	0%						
CSc1ccccc1NC(=O)[C@H]1C(=O)N(C)C[C@@H]1c1ccc2c(c1)OC(F)(F)O2 [Compound 1251]	90%	90%	0%	0%	90%	0%						
Cc1c(F)cccc1NC(=O)[C@H]1C(=O)N(C)C[C@@H]1c1ccc2c(c1)OC(F)(F)O2 [Compound 1252]	70%	90%	65%	0%	100%	30%						
CN1C[C@H](c2ccc(F)c(C#N)c2)[C@@H](C(=O)Nc2ccccc2F)C1=O [Compound 1254]	20%	70%	60%	0%	100%	0%						
CSc1ccccc1NC(=O)[C@H]1C(=O)NC[C@@H]1c1ccc2c(c1)OCO2 [Compound 1257]	0%	0%	20%	0%	0%	0%						
COc1cc([C@H]2CN(C)C(=O)[C@@H]2C(=O)Nc2cccc(F)c2F)ccc1F [Compound 1299]	20%	60%	65%	40%	85%	20%						
COc1cc([C@H]2CN(C)C(=O)[C@@H]2C(=O)Nc2ccccc2SC)ccc1F [Compound 1301]	0%	30%	0%	0%	20%	0%						
Cc1c(F)cccc1NC(=O)[C@H]1C(=O)NC[C@@H]1c1cccc2c1OC(F)(F)O2 [Compound 1305]	0%	0%	20%	0%	70%	0%						
Cc1cc([C@H]2CN(C)C(=O)[C@@H]2C(=O)Nc2cccc(F)c2C)ccc1F [Compound 1311]		20%	80%	0%	100%	0%	0%					
CN1C[C@H](c2cccc(C(C)(F)F)c2)[C@@H](C(=O)Nc2cccc(F)c2F)C1=O [Compound 1316]		80%	75%		90%	0%	70%	0%				
CN1C[C@H](c2cccc(C(C)(F)F)c2)[C@@H](C(=O)Nc2ccccc2F)C1=O [Compound 1317]		60%	85%		100%	0%	0%	0%				
CN1C[C@H](c2cccc(C(C)(F)F)c2)[C@@H](C(=O)Nc2ccccc2S(C)(=O)=O)C1=O [Compound 1318]		80%	65%		85%	0%	70%	0%				
CS(=O)(=O)c1ccccc1NC(=O)[C@H]1C(=O)NC[C@@H]1c1ccc2c(c1)CCO2 [Compound 1320]		0%	0%		50%	0%	0%	0%				
CN1C[C@H](c2ccc3c(c2)CCO3)[C@@H](C(=O)Nc2ccc(F)c(F)c2F)C1=O [Compound 1323]		40%	90%		85%	10%	0%	0%				
Cc1c(F)ccc([C@H]2CNC(=O)[C@@H]2C(=O)Nc2cccc(F)c2F)c1F [Compound 1327]			30%		100%	0%	0%	0%	30%			
Cc1c(F)ccc([C@H]2CNC(=O)[C@@H]2C(=O)Nc2ccc(F)cc2F)c1F [Compound 1328]							0%	0%	0%	0%	50%	0%
COc1cc(OC)cc([C@H]2CN(C)C(=O)[C@@H]2C(=O)Nc2cccc(F)c2F)c1 [Compound 1370]							0%	0%	20%	60%	70%	20%
CN1C[C@H](c2ccc(OC(F)F)cc2)[C@@H](C(=O)Nc2ccccc2F)C1=O [Compound 1371]							70%	0%	90%	60%	100%	0%
Cc1ccc([C@H]2CN(C)C(=O)[C@@H]2C(=O)Nc2ccccc2F)cc1Cl [Compound 1384]							30%	0%	30%	65%	100%	40%
CC(C)c1cccc([C@H]2CN(C)C(=O)[C@@H]2C(=O)Nc2cccc(F)c2F)c1 [Compound 1388]							30%	0%	70%	65%	80%	0%
CN1C[C@H](c2cccc(C(F)(F)F)c2)[C@@H](C(=O)Nc2ccc(F)c(F)c2F)C1=O [Compound 1389]							70%	0%	80%	60%	100%	15%

Source: patent US12077503B2, “Substituted cyclic amides and their use as herbicides” (FMC CORPORATION, priority 2015, dated 2024)
